# In patent US20260297042A1, “BIARYLAMIDE DERIVATIVES AND THEIR USE AS PKMYT1 INHIBITORS” (CANCER RESEARCH TECHNOLOGY LIMITED, priority 2023, published 2026):
# Counter-ions that a name gives are not always drawn.
# How the values were obtained:
# [1] = molecular target: T1, WEE1 (Homo sapiens, UniProt P30291); assay: Selectivity versus WEE1 assay (ADP-Glo enzymatic assay); assay type: biochemical; settings: for IC50: ADP-Glo; for PKMYT1 vs. WEE1 selectivity: fold difference in selectivity for PKMYT1 over WEE1
# T1 construct: purchased Thermo Fisher PR7373A
# Experimental: Selectivity versus WEE1 assay: Selectivity was established using the same format as outlined for PKMYT1. After dosing of compounds via the Echo acoustic dispenser—as described above—WEE1 (Thermo Fisher PR7373A) was added to each well at a final concentration of 15 nM in a buffer of 50 mM HEPES (pH 7.5), 10 mM MgCl2, 1 mM EGTA, 0.01% Brij-35, 1% DMSO. 30 µM ATP was added to start the reaction with the final assay volume being 4 μl. The plate was then incubated for 60 minutes at 26° C. before the addition of 4 μl of ADP-Glo Reagent. Following a further 60 minute incubation the assay signal was developed by the addition of 8 μl ADP-Glo Detection Reagent. After 60 minutes the luminescence signal was read on a PHERAStar FS microplate reader (BMG Labtech).
# (§1) Data analysis: Data was captured and analysed within the Dotmatics Studies software module where dose response curves were generated and IC50 values determined. Acceptance and verification of data followed strict in-house business rules which are summarised as follows. […] Technical and biological replicates of each compound are routinely tested and replicate IC50 values must fall within 3-fold of each other with dose response curves showing ‘goodness of fit’ r2 values >0.9. Failure to meet any of these defined criteria result in rejection of data.
# [2] = molecular target: T2, Human PKMYT1 (Homo sapiens, UniProt Q99640); assay: PKMYT1 biochemical ADP-Glo enzymatic assay; settings: ADP-Glo
# T2 construct: Human PKMYT1 75-362 was cloned as a TEV cleavable 6xHis fusion; 6xHis (TEV cleavable) (cleaved yes); made in house; host or cells: bacterial cells
# T2 sequence (Q99640 75-362): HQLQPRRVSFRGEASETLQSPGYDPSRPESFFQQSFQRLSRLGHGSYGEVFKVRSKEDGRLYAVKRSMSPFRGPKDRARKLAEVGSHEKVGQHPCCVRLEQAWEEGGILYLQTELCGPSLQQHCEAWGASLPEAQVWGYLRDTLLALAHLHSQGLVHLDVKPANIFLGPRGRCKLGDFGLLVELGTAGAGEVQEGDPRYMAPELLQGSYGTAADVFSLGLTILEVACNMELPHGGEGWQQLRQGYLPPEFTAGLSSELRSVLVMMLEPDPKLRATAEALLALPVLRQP
# Experimental: Human PKMYT1 75-362 was cloned as a TEV cleavable 6xHis fusion in bacterial cells. After purification on a Ni++HiTrap Chelating HP column, the His-tag was cleaved using TEV protease. Cleaved PKMYT1 was further purified on a Superdex 200 16/600 sizing column. The fractions containing PKMYT1 were pooled and concentrated using an ultrafiltration centrifugal protein concentrator. The purified protein was aliquoted, flash frozen in liquid nitrogen, and stored at −80° C.
# PKMYT1 biochemical assay: Inhibition of PKMYT1 was assessed using the ADP-Glo™ Max Detection System from Promega. This assay detects the production of ADP from ATP by PKMYT1 via a two-step process ultimately involving the conversion of ADP to ATP with the latter converted to light in a coupled reaction with luciferase/luciferin. Inhibition of PKMYT1 by small molecule inhibitors results in a retardation of luminescence above background. The intrinsic ATPase activity of PKMYT1 was assessed according to the following protocol. Compounds were dosed into Corning white low volume 384 well assay plates using an Echo acoustic dispenser to generate 10-point curves spanning a 3-fold dilution series. DMSO (no inhibitor) control wells were prepared to benchmark the maximum and minimum signals in the presence and absence of PKMYT1, respectively. The PKMYT1 kinase domain was purified in-house, as described above, and added to the wells at a final concentration of 15 nM in a buffer of 50 mM HEPES (pH 7.5), 10 mM MgCl2, 1 mM EGTA, 0.01% Brij-35, 1% DMSO. 500 µM ATP was added to start the reaction with the final assay volume being 4 μl. The plate was then incubated for 60 minutes at 26° C. before the addition of 4 μl of ADP-Glo Reagent to stop the reaction and deplete the unconsumed ATP. Following a further 60 minute incubation the assay signal was developed by the addition of 8 μl ADP-Glo Max Detection Reagent. After 60 minutes the luminescence signal was read on a PHERAStar FS microplate reader (BMG Labtech).
# as §1
# [3] = 15 nM WEE1, 60 minutes at 26° C., banded
# [4] = banded, ">N" = at least in this band but could be higher
# [5] = 15 nM PKMYT1 kinase domain, 500 µM ATP, 60 minutes at 26° C., banded
# [6] = PKMYT1 kinase domain 15 nM, banded values
# T1 sequence (P30291 whole entry): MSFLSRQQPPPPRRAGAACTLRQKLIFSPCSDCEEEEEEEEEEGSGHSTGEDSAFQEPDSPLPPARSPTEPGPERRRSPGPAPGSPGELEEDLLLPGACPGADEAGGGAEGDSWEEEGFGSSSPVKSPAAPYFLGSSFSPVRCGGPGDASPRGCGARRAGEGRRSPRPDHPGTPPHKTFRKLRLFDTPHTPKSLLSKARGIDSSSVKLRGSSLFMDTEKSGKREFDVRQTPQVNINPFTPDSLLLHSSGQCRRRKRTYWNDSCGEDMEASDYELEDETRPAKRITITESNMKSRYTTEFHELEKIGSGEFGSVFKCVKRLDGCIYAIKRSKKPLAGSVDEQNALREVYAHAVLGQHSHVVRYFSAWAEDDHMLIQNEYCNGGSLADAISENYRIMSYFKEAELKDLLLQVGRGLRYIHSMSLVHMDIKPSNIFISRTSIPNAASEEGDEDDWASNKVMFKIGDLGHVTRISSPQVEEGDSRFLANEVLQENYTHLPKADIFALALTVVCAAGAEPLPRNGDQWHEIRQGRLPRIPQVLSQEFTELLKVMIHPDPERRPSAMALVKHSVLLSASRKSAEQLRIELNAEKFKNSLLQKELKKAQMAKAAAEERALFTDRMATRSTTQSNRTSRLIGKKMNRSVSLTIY
"IC50 [1, 3]","PKMYT1 vs. WEE1 selectivity [1, 4]","IC50 [2, 5]","IC50 ([1]; WEE1 15 nM, banded values)",PKMYT1 vs. WEE1 selectivity ([1]; banded),"IC50 [2, 6]",Compound
> 11000 nM,Y (1000-5000 fold),< 50 nM,,,,"Cc1ccc(O)c(C)c1NC(=O)c1cnc(Nc2ccn(CC(=O)NCCO)n2)s1 [BAA-147, N-(3-hydroxy-2,6-dimethyl-phenyl)-2-[[1-[2-(2-hydroxyethylamino)-2-oxo-ethyl]pyrazol-3-yl]amino]thiazole-5-carboxamide]"
> 11000 nM,Y (1000-5000 fold),< 50 nM,,,,"Cc1ccc(O)c(C)c1NC(=O)c1cnc(Nc2ccn(CC(=O)NCCCO)n2)s1 [BAA-159, N-(3-hydroxy-2,6-dimethyl-phenyl)-2-[[1-[2-(3-hydroxypropylamino)-2-oxo-ethyl]pyrazol-3-yl]amino]thiazole-5-carboxamide]"
> 11000 nM,X (100-<1000 fold),50 to 1000 nM,,,,Cc1ccc(O)c(C)c1NC(=O)c1cnc(NCC2CC2)s1 [BAA-347]
> 11000 nM,W (10-<100 fold),1000 to 11000 nM,,,,"Cc1ccc(O)c(C)c1NC(=O)c1cnc(Nc2ccn([C@H]3CCCNC3)n2)s1 [BAA-054, N-(3-hydroxy-2,6-dimethyl-phenyl)-2-[1-[(3S)-3-piperidyl]pyrazol-3-yllamino]thiazole-5-carboxamide (hydrochloride)]"
> 11000 nM,>W (10-<100 fold),1000 to 11000 nM,,,,"Cc1ccc(O)c(C)c1NC(=O)c1cnc(NC2CCN(S(C)(=O)=O)CC2)s1 [BAA-067, N-(3-hydroxy-2,6-dimethyl-phenyl)-2-[(1-methylsulfonyl-4-piperidyl)amino]thiazole-5-carboxamide]"
1000 to 11000 nM,X (100-<1000 fold),< 50 nM,,,,"Cc1c[nH]nc1Nc1ncc(C(=O)Nc2c(C)ccc(O)c2C)s1 [BAA-388, N-(3-hydroxy-2,6-dimethylphenyl)-2-((4-methyl-1H-pyrazol-3-yl)amino)thiazole-5-carboxamide]"
,,,1000 to 11000 nM,W (10-<100 fold),50 to 1000 nM,"CCOc1ccc(Nc2ncc(C(=O)Nc3c(C)ccc(O)c3C)s2)cc1 [BAA-503, 2-((4-ethoxyphenyl)amino)-N-(3-hydroxy-2,6-dimethylphenyl)thiazole-5-carboxamide]"
> 11000 nM,X (100-<1000 fold),50 to 1000 nM,,,,"Cc1ccc(O)c(C)c1NC(=O)c1cnc(Nc2nn(C)cc2-c2ccccc2)s1 [BAA-373, N-(3-hydroxy-2,6-dimethylphenyl)-2-((1-methyl-4-phenyl-1H-pyrazol-3-yl)amino)thiazole-5-carboxamide]"
> 11000 nM,>X (100-<1000 fold),50 to 1000 nM,,,,"CCC(=O)N1CCC(CNc2ncc(C(=O)Nc3c(C)ccc(O)c3C)s2)CC1 [BAA-077, N-(3-hydroxy-2,6-dimethyl-phenyl)-2-[(1-propanoyl-4-piperidyl)methylamino]thiazole-5-carboxamide]"
,,,> 11000 nM,W (10-<100 fold),50 to 1000 nM,"Cc1cn(CCN(C)C)nc1Nc1ncc(C(=O)Nc2c(C)ccc(O)c2C)s1 [BAA-501, 2-((1-(2-(dimethylamino)ethyl)-4-methyl-1H-pyrazol-3-yl)amino)-N-(3-hydroxy-2,6-dimethylphenyl)thiazole-5-carboxamide]"
> 11000 nM,>X (100-<1000 fold),50 to 1000 nM,,,,"Cc1ccc(O)c(C)c1NC(=O)c1cnc(NCCC(=O)N2CCOCC2)s1 [BAA-078, N-(3-hydroxy-2,6-dimethyl-phenyl)-2-[(3-morpholino-3-oxo-propyl)amino]thiazole-5-carboxamide]"
> 11000 nM,>X (100-<1000 fold),50 to 1000 nM,,,,Cc1ccc(O)c(C)c1NC(=O)c1cnc(Nc2ccn([C@@H]3CCN(C(=O)CC4CCOCC4)C3)n2)s1 [BAA-090]
> 11000 nM,>W (10-<100 fold),1000 to 11000 nM,,,,"Cc1ccc(O)c(C)c1NC(=O)c1cnc(Nc2ncc[nH]2)s1 [BAA-030, N-(3-hydroxy-2,6-dimethyl-phenyl)-2-(1H-imidazol-2-ylamino)thiazole-5-carboxamide]"
1000 to 11000 nM,W (10-<100 fold),50 to 1000 nM,,,,CCOC(=O)CCCn1ccc(Nc2ncc(C(=O)Nc3c(C)ccc(O)c3C)s2)n1 [BAA-022]
,,,> 11000 nM,X (100-<1000 fold),50 to 1000 nM,"Cc1ccc(O)c(C)c1NC(=O)c1cnc(Nc2ccccc2C2CC2)s1 [BAA-526, 2-((2-cyclopropylphenyl)amino)-N-(3-hydroxy-2,6-dimethylphenyl)thiazole-5-carboxamide]"
> 11000 nM,Y (1000-5000 fold),< 50 nM,,,,Cc1ccc(O)c(C)c1NC(=O)c1cnc(Nc2ccn(CC(=O)N3CCC[C@@H](O)C3)n2)s1 [BAA-161]
,,,1000 to 11000 nM,W (10-<100 fold),< 50 nM,"Cc1ccc(O)c(C)c1NC(=O)c1cnc(Nc2cc(C)n(CCC#N)n2)s1 [BAA-518, 2-((1-(2-cyanoethyl)-5-methyl-1H-pyrazol-3-yl)amino)-N-(3-hydroxy-2,6-dimethylphenyl)thiazole-5-carboxamide]"
,,,> 11000 nM,X (100-<1000 fold),50 to 1000 nM,"Cc1ccc(O)c(C)c1NC(=O)c1cnc(Nc2nccc3ccncc23)s1 [BAA-602, 2-((2,7-naphthyridin-1-yl)amino)-N-(3-hydroxy-2,6-dimethylphenyl)thiazole-5-carboxamide]"
1000 to 11000 nM,X (100-<1000 fold),50 to 1000 nM,,,,"Cc1ccc(O)c(C)c1NC(=O)c1cnc(Nc2ccn(C(C)C)n2)s1 [BAA-008, N-(3-hydroxy-2,6-dimethyl-phenyl)-2-[(1-isopropylpyrazol-3-yl)amino]thiazole-5-carboxamide]"
,,,> 11000 nM,Y (1000-5000 fold),< 50 nM,"Cc1ccnc(Nc2ncc(C(=O)Nc3c(C)ccc(O)c3C)s2)n1 [BAA-567, N-(3-hydroxy-2,6-dimethylphenyl)-2-((4-methylpyrimidin-2-yl)amino)thiazole-5-carboxamide]"
> 11000 nM,Y (1000-5000 fold),50 to 1000 nM,,,,"Cc1ccc(O)c(C)c1NC(=O)c1cnc(Nc2cc(C(F)(F)F)nc(OCC(F)(F)F)n2)s1 [BAA-318, N-(3-hydroxy-2,6-dimethylphenyl)-2-((2-(2,2,2-trifluoroethoxy)-6-(trifluoromethyl)pyrimidin-4-yl)amino)thiazole-5-carboxamide]"
,,,1000 to 11000 nM,X (100-<1000 fold),< 50 nM,"Cc1cn(CC(=O)N(C)CC(F)(F)F)nc1Nc1ncc(C(=O)Nc2c(C)ccc(O)c2C)s1 [BAA-514, N-(3-hydroxy-2,6-dimethylphenyl)-2-((4-methyl-1-(2-(methyl(2,2,2-trifluoroethyl)amino)-2-oxoethyl)-1H-pyrazol-3-yl)amino)thiazole-5-carboxamide]"
